# Reference: PubChem BioAssay (NCI)
# Values joined by “and” are separate entries in the source; they are usually repeats but may differ in a detail not shown here. Identical values can stand only once.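 48-hour exposure; five concentrations; linearly interpolated endpoints. GI50 is the concentration that inhibits growth by half. At the TGI there is no net growth.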
# Assays:
# Assay in all cases: NCI tumour cell line growth inhibition, 48 h
# DMS 114 small cell lung = tested on: DMS 114 small cell lung
# HOP-18 NSCLC = tested on: HOP-18 NSCLC
# EKVX NSCLC = tested on: EKVX NSCLC
# M19-MEL melanoma = tested on: M19-MEL melanoma
# P388 leukemia = tested on: P388 leukemia
# XF 498 CNS = tested on: XF 498 CNS
# P388/ADR leukemia = tested on: P388/ADR leukemia
# U251 CNS = tested on: U251 CNS
# HL-60(TB) leukemia = tested on: HL-60(TB) leukemia
# UACC-257 melanoma = tested on: UACC-257 melanoma
# OVCAR-5 ovarian = tested on: OVCAR-5 ovarian
# SK-OV-3 ovarian = tested on: SK-OV-3 ovarian
# SNB-75 CNS = tested on: SNB-75 CNS
# A498 renal = tested on: A498 renal
# OVCAR-8 ovarian = tested on: OVCAR-8 ovarian
# HCT-116 colon = tested on: HCT-116 colon
# COLO 205 colon = tested on: COLO 205 colon
# DLD-1 colon = tested on: DLD-1 colon
# SK-MEL-28 melanoma = tested on: SK-MEL-28 melanoma
# K-562 leukemia = tested on: K-562 leukemia
# KM20L2 colon = tested on: KM20L2 colon
# RXF 393 renal = tested on: RXF 393 renal
# IGROV1 ovarian = tested on: IGROV1 ovarian
# SW-620 colon = tested on: SW-620 colon
# RXF-631 renal = tested on: RXF-631 renal
# DMS 273 small cell lung = tested on: DMS 273 small cell lung
# NCI-H460 lung = tested on: NCI-H460 lung
# RPMI-8226 leukemia = tested on: RPMI-8226 leukemia
# NCI-H522 lung = tested on: NCI-H522 lung
# HCC-2998 colon = tested on: HCC-2998 colon
# LOX IMVI melanoma = tested on: LOX IMVI melanoma
# SF-539 CNS = tested on: SF-539 CNS
# ACHN renal = tested on: ACHN renal
# SK-MEL-5 melanoma = tested on: SK-MEL-5 melanoma
# 786-0 renal = tested on: 786-0 renal
# SNB-78 CNS = tested on: SNB-78 CNS
# UO-31 renal = tested on: UO-31 renal
# A549 NSCLC = tested on: A549 NSCLC
# TK-10 renal = tested on: TK-10 renal
# HT29 colon = tested on: HT29 colon
# HOP-62 NSCLC = tested on: HOP-62 NSCLC
# HOP-92 NSCLC = tested on: HOP-92 NSCLC
# MALME-3M melanoma = tested on: MALME-3M melanoma
# OVCAR-3 ovarian = tested on: OVCAR-3 ovarian
# LXFL 529 NSCLC = tested on: LXFL 529 NSCLC
# KM12 colon = tested on: KM12 colon
# MOLT-4 leukemia = tested on: MOLT-4 leukemia
# NCI-H23 lung = tested on: NCI-H23 lung
# CCRF-CEM leukemia = tested on: CCRF-CEM leukemia
# SK-MEL-2 melanoma = tested on: SK-MEL-2 melanoma
# SF-295 CNS = tested on: SF-295 CNS
# SF-268 CNS = tested on: SF-268 CNS
# SR leukemia = tested on: SR leukemia
# SN12C renal = tested on: SN12C renal
# HCT-15 colon = tested on: HCT-15 colon
# CAKI-1 renal = tested on: CAKI-1 renal
# UACC-62 melanoma = tested on: UACC-62 melanoma
# NCI-H226 lung = tested on: NCI-H226 lung
# SNB-19 CNS = tested on: SNB-19 CNS
# OVCAR-4 ovarian = tested on: OVCAR-4 ovarian
# M14 melanoma = tested on: M14 melanoma
compound,measurement,setting,value
Nc1ncn(C2OC(CO)C(O)C2O)c(=O)n1 (stereo not given),GI50,DMS 114 small cell lung,9.47 µM and 1.17 µM
same,TGI,HOP-18 NSCLC,250 µM and 125 µM
same,TGI,EKVX NSCLC,215 µM and > 72.8 µM and 26.5 µM
same,TGI,M19-MEL melanoma,> 250 µM and 28.4 µM
same,GI50,P388 leukemia,0.55 µM
same,TGI,P388 leukemia,36.7 µM and 7.61 µM
same,TGI,XF 498 CNS,61.2 µM and 11.4 µM
same,GI50,P388/ADR leukemia,0.611 µM
same,TGI,P388/ADR leukemia,41.1 µM and 11.6 µM
O=C1/C(=C/c2ccc(Cl)cc2)COc2ccc(Br)cc21,TGI,U251 CNS,> 100 µM
same,TGI,HL-60(TB) leukemia,> 100 µM
same,TGI,UACC-257 melanoma,> 100 µM
same,TGI,OVCAR-5 ovarian,> 100 µM
same,TGI,DMS 114 small cell lung,> 100 µM
same,TGI,SK-OV-3 ovarian,> 100 µM
same,TGI,SNB-75 CNS,> 100 µM
same,TGI,A498 renal,> 100 µM
same,TGI,OVCAR-8 ovarian,> 100 µM
same,TGI,HCT-116 colon,> 100 µM
same,TGI,COLO 205 colon,> 100 µM
same,TGI,HOP-18 NSCLC,> 100 µM
same,TGI,DLD-1 colon,> 100 µM
same,TGI,SK-MEL-28 melanoma,> 100 µM
same,TGI,K-562 leukemia,> 100 µM
same,TGI,KM20L2 colon,> 100 µM
same,TGI,RXF 393 renal,> 100 µM
same,TGI,IGROV1 ovarian,> 100 µM
same,TGI,SW-620 colon,> 100 µM
same,TGI,RXF-631 renal,> 100 µM
same,TGI,DMS 273 small cell lung,> 100 µM
same,TGI,NCI-H460 lung,> 100 µM
same,TGI,RPMI-8226 leukemia,74.4 µM
same,TGI,NCI-H522 lung,> 100 µM
same,TGI,HCC-2998 colon,> 100 µM
same,TGI,LOX IMVI melanoma,> 100 µM
same,TGI,SF-539 CNS,> 100 µM
same,TGI,ACHN renal,> 100 µM
same,TGI,SK-MEL-5 melanoma,> 100 µM
same,TGI,786-0 renal,> 100 µM
same,TGI,SNB-78 CNS,> 100 µM
same,TGI,UO-31 renal,> 100 µM
same,TGI,A549 NSCLC,> 100 µM
same,TGI,TK-10 renal,> 100 µM
same,TGI,HT29 colon,> 100 µM
same,TGI,EKVX NSCLC,> 100 µM
same,TGI,HOP-62 NSCLC,> 100 µM
same,TGI,HOP-92 NSCLC,> 100 µM
same,TGI,MALME-3M melanoma,> 100 µM
same,TGI,OVCAR-3 ovarian,> 100 µM
same,TGI,LXFL 529 NSCLC,> 100 µM
same,TGI,M19-MEL melanoma,> 100 µM
same,TGI,KM12 colon,> 100 µM
same,TGI,MOLT-4 leukemia,> 100 µM
same,TGI,XF 498 CNS,> 100 µM
same,TGI,NCI-H23 lung,> 100 µM
same,TGI,CCRF-CEM leukemia,> 100 µM
same,TGI,SK-MEL-2 melanoma,> 100 µM
same,TGI,SF-295 CNS,> 100 µM
same,TGI,SF-268 CNS,> 100 µM
CC(C)S(=O)(=O)ON1C(=O)c2ccc([N+](=O)[O-])cc2C1=O,TGI,U251 CNS,> 100 µM
same,TGI,HL-60(TB) leukemia,> 100 µM
same,TGI,UACC-257 melanoma,> 100 µM
same,TGI,OVCAR-5 ovarian,> 100 µM
same,TGI,DMS 114 small cell lung,> 100 µM
same,TGI,SK-OV-3 ovarian,> 100 µM
same,TGI,SNB-75 CNS,> 100 µM
same,TGI,SR leukemia,> 100 µM
same,TGI,SN12C renal,> 100 µM
same,TGI,A498 renal,> 100 µM
same,TGI,OVCAR-8 ovarian,> 100 µM
same,TGI,HCT-116 colon,> 100 µM
same,TGI,COLO 205 colon,> 100 µM
same,TGI,HOP-18 NSCLC,> 100 µM
same,TGI,DLD-1 colon,> 100 µM
same,TGI,HCT-15 colon,> 100 µM
same,TGI,SK-MEL-28 melanoma,> 100 µM
same,TGI,CAKI-1 renal,> 100 µM
same,TGI,K-562 leukemia,> 100 µM
same,TGI,RXF 393 renal,> 100 µM
same,TGI,IGROV1 ovarian,> 100 µM
same,TGI,SW-620 colon,> 100 µM
same,TGI,RXF-631 renal,> 100 µM
same,TGI,DMS 273 small cell lung,> 100 µM
same,TGI,UACC-62 melanoma,> 100 µM
same,TGI,NCI-H460 lung,> 100 µM
same,TGI,NCI-H226 lung,> 100 µM
same,TGI,NCI-H522 lung,> 100 µM
same,TGI,HCC-2998 colon,> 100 µM
same,TGI,SNB-19 CNS,> 100 µM
same,TGI,SF-539 CNS,> 100 µM
same,TGI,ACHN renal,> 100 µM
same,TGI,SK-MEL-5 melanoma,> 100 µM
same,TGI,786-0 renal,> 100 µM
same,TGI,SNB-78 CNS,> 100 µM
same,TGI,UO-31 renal,> 100 µM
same,TGI,A549 NSCLC,> 100 µM
same,TGI,TK-10 renal,> 100 µM
same,TGI,HT29 colon,> 100 µM
same,TGI,EKVX NSCLC,> 100 µM
same,TGI,HOP-62 NSCLC,> 100 µM
same,TGI,OVCAR-4 ovarian,> 100 µM
same,TGI,HOP-92 NSCLC,> 100 µM
same,TGI,MALME-3M melanoma,> 100 µM
same,TGI,OVCAR-3 ovarian,> 100 µM
same,TGI,LXFL 529 NSCLC,> 100 µM
same,TGI,M19-MEL melanoma,> 100 µM
same,TGI,KM12 colon,> 100 µM
same,TGI,XF 498 CNS,> 100 µM
same,TGI,NCI-H23 lung,> 100 µM
same,TGI,CCRF-CEM leukemia,> 100 µM
same,TGI,SK-MEL-2 melanoma,> 100 µM
same,TGI,M14 melanoma,> 100 µM
same,TGI,SF-295 CNS,> 100 µM
same,TGI,SF-268 CNS,> 100 µM
C/C(CC(=O)Nc1cc(Cl)c(Cl)cc1Cl)=N\NS(=O)(=O)c1ccc(C)cc1,TGI,U251 CNS,> 100 µM
same,TGI,HL-60(TB) leukemia,62.9 µM
same,TGI,UACC-257 melanoma,> 100 µM
same,TGI,OVCAR-5 ovarian,> 100 µM
same,TGI,DMS 114 small cell lung,82.9 µM
same,TGI,SK-OV-3 ovarian,> 100 µM
same,TGI,SNB-75 CNS,> 100 µM
same,TGI,A498 renal,> 100 µM
same,TGI,OVCAR-8 ovarian,> 100 µM
same,TGI,HCT-116 colon,59.6 µM
same,TGI,COLO 205 colon,61.1 µM
same,TGI,DLD-1 colon,> 100 µM
same,TGI,SK-MEL-28 melanoma,> 100 µM
same,TGI,K-562 leukemia,> 100 µM
same,TGI,KM20L2 colon,> 100 µM
same,TGI,RXF 393 renal,82.7 µM
same,TGI,IGROV1 ovarian,> 100 µM
same,TGI,SW-620 colon,> 100 µM
same,TGI,RXF-631 renal,> 100 µM
same,TGI,UACC-62 melanoma,75.9 µM
same,TGI,NCI-H460 lung,> 100 µM
same,TGI,NCI-H226 lung,53 µM
same,TGI,RPMI-8226 leukemia,87.2 µM
same,TGI,NCI-H522 lung,41.8 µM
same,TGI,HCC-2998 colon,86.5 µM
same,TGI,LOX IMVI melanoma,> 100 µM
same,TGI,SF-539 CNS,85.8 µM
same,TGI,ACHN renal,79.8 µM
same,TGI,SK-MEL-5 melanoma,> 100 µM
same,TGI,786-0 renal,> 100 µM
same,TGI,SNB-78 CNS,93.7 µM
same,TGI,UO-31 renal,52.3 µM
same,TGI,A549 NSCLC,> 100 µM
same,TGI,TK-10 renal,> 100 µM
same,TGI,HT29 colon,> 100 µM
same,TGI,EKVX NSCLC,> 100 µM
same,TGI,HOP-62 NSCLC,> 100 µM
same,TGI,HOP-92 NSCLC,59 µM
same,TGI,MALME-3M melanoma,> 100 µM
same,TGI,OVCAR-3 ovarian,74.7 µM
same,TGI,LXFL 529 NSCLC,> 100 µM
same,TGI,M19-MEL melanoma,94.4 µM
same,TGI,KM12 colon,> 100 µM
same,TGI,MOLT-4 leukemia,> 100 µM
same,TGI,XF 498 CNS,77.9 µM
same,TGI,NCI-H23 lung,54.6 µM
same,TGI,CCRF-CEM leukemia,> 100 µM
same,TGI,SK-MEL-2 melanoma,86.8 µM
same,TGI,M14 melanoma,91.4 µM
same,TGI,SF-295 CNS,> 100 µM
same,TGI,SF-268 CNS,> 100 µM
